Measurements reported in patent publication US10160744B2, “Quinoline compounds suitable for treating disorders that respond to the modulation of the serotonin 5-HT6 receptor” (Abbvie Deutschland GmbH & Co. KG, priority 2016, dated 2018).

Columns and labels:
h-5-HT6 receptor = biological target: T1, h-5-HT6 receptor (Homo sapiens, UniProt P50406); assay: 5-HT6 receptor binding assay (displacement of [3H]-LSD); details: cloned human 5-HT6 receptor, HEK293 membranes, 1 nM [3H]-LSD
T1 construct: expressed in transfected cells
Description: Displacement of radioligands binding to the following cloned human receptors
1. Preparation of Membranes by Ultrasonic Treatment and Differential Centrifugation
Cells from stable clonal cell lines expressing the corresponding receptor (5-HT6, α1-adrenergic, dopamine D2 or histamine H1 receptors) were washed with PBS (w/o Ca^++, Mg^++) and harvested in PBS with 0.02% EDTA. The cells were collected by centrifugation at 500 g for 10 min. at 4° C., washed with PBS and centrifuged (500 g, 10 min. 4° C.). The pellets were stored at −80° C. until use. For membrane preparation, the thawed cell pellet was resuspended in ice-cold sucrose buffer (0.25 M sucrose, 10 mM Hepes (pH 7.4), 1 mM Phenylmethylsulfonyl fluoride (PMSF) in DMSO, 5 μg/ml Pepstatin-A, 3 mM EDTA, 0.025% Bacitracin) and homogenized with a Branson Sonifier W-250 (Settings: Timer 4; Output Control 3; Duty Cycle constant; 2 to 3 cycles). Cell disruption was checked with the aid of a microscope. Remaining unbroken cells were pelleted at 1.000 g for 10 min. at 4° C. The sucrose buffer supernatant was then centrifuged at 60.000 g for 1 h at 4° C. (Beckman Ultrazentrifuge XL 80). The pellet was resuspended in 30 ml ice-cold Tris buffer (20 mM TRIS (pH 7.4), 5 μg/ml Pepstatin A, 0.1 mM PMSF, 3 mM EDTA) by pipetting through a 10 ml serological pipet and centrifuged for 1 h at 4° C. at 60.000 g. A final resuspension was performed in a small volume of ice-cold Tris buffer (see above) by pressing through a serological pipet followed by ultrasonic treatment with a Branson Sonifier W-250 (Settings: Timer 1; Output Control 3; Duty Cycle constant; 1 cycle). Protein concentration was determined (BCA-Kit; Pierce) and aliquots stored at −80° C. or in liquid nitrogen for long-term storage.
2. Receptor Binding Experiments
All receptor binding experiments were carried out in the corresponding assay buffer in a total volume of 200 μl in the presence of various concentrations of test compound (10^−5 M to 10^−9 M, tenfold serial dilution, duplicate determinations). The assays were terminated by filtration on polyethylenimine (PEI 0.1% or 0.3%) presoaked Packard Unifilter Plates (GF/C or GF/B) with a Tomtec MachIII U 96 well-plate harvester. After the plates had been dried for 2 h at 55° C. in a drying chamber scintillation cocktail (BetaPlate Scint; PerkinElmer) was added. Radioactivity was measured in a Microbeta Trilux two hours after the addition of the scintillation mixture. Data derived from liquid scintillation counting were analysed by iterative non-linear regression analysis with the use of the Statistical Analysis System (SAS): a program similar to “LIGAND” as described by Munson and Rodbard (Analytical Biochemistry 107, 220-239 (1980).
a) 5-HT6 Receptor Binding Assay
HEK293 cells stably expressing the h-5-HT6 receptor (NCBI Reference Sequence XM 001435) were cultured in RPMI1640 medium supplemented with 25 mM HEPES, 10% fetal calf serum and 1-2 mM glutamine. The membrane preparation was performed as described in section 1. […] Non-specific binding was defined with 1 μM methiothepin. The binding reaction was carried out for 3.5 h at room temperature. During the incubation, the plates were shaken on a plate shaker at 100 rpm and terminated by filtration on Packard Unifilter GF/C (0.1% PEI) plates, followed by 2 wash cycles with ice-cold 50 mM Tris-HCl, 5 mM CaCl2.
Data derived from liquid scintillation counting were analyzed by iterative non-linear regression analysis with the use of the Statistical Analysis System (SAS): a program similar to “LIGAND” as described by Munson and Rodbard (Anal. Biochem. 1980, 107, 220-239). Fitting was performed according to formulae described by Feldman (Anal. Biochem. 1972, 48, 317-338). IC50, nH and Ki values were expressed as geometrical mean.

[1] = Metabolic stability in human liver microsomes (microsomal clearance); assay type: in vitro ADME; details: pH 7.4; human liver microsomes 0.25 mg protein/mL, 0.5 μM compound, NADPH, 37° C.; read-out: mClint
Description: Samples of the tested compounds (0.5 μM) were preincubated together with human liver microsomes (0.25 mg of microsomal protein/mL) in 0.05 M potassium phosphate buffer of pH 7.4 in microtiter plates at 37° C. for 5 minutes. The reaction was started by adding NADPH (1.0 mM). After 0, 5, 10, 15, 20 and 30 minutes, an aliquot was removed, the reaction was cooled and stopped by adding twice the amount of quench solution consisting of acetonitrile/methanol 1:1, and containing 0.2 μM carbutamide as internal standard. The samples were frozen until analyzed. The remaining concentration of undegraded test substance was determined by liquid chromatography-tandem mass spectrometry (LC-MS/MS). The half-life (t1/2) was determined from the gradient of the ratio of the signal of (test substance/internal standard)/unit time plot, allowing the calculation of the half-life of the test substance, assuming first order kinetics, from the decrease in the concentration of the compound with time. The microsomal clearance (mClint) was calculated as follows: mClint=((ln(2)/t 1/2)/Microsomal Protein Concentration (mg/ml))*1000, leading to the unit of μL/min/mg.

T1 sequence (P50406 whole entry): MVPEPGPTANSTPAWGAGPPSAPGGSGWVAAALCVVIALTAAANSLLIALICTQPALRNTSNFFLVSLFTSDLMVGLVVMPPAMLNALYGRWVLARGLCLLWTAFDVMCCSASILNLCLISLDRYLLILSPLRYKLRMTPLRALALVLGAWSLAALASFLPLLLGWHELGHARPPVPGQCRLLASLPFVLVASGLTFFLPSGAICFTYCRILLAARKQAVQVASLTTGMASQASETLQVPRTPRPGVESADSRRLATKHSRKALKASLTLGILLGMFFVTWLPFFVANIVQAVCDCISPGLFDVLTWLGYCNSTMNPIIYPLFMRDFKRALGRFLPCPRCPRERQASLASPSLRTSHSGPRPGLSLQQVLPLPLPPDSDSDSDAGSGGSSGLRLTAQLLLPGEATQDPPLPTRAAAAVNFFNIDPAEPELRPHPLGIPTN

SMILES	Ki (h-5-HT6 receptor)	microsomal CLint at 0.5 μM [1]
O=S(=O)(c1cccc(N2CCC(O)CC2)c1)c1cnc2c(F)cccc2c1 [Example 24, 1-[3-[(8-Fluoro-3-quinolyl)sulfonyl]phenyl]piperidin-4-ol]	0.01 to 0.1 µM	60 to 120 µL/min/mg
O=S(=O)(c1ccccc1)c1cnc2c(N3C[C@H](O)[C@@H](O)C3)cccc2c1 [Example 32, (3S,4S)-1-[3-(Benzenesulfonyl)-8-quinolyl]pyrrolidine-3,4-diol]	< 0.01 µM	30 to 60 µL/min/mg
O=S(=O)(c1ccccc1)c1cnc2c(N3CCC(O)CC3)cccc2c1 [Example 18, 1-[3-(Benzenesulfonyl)-8-quinolyl]piperidin-4-ol]	< 0.01 µM	< 30 µL/min/mg
COc1ccc(C)cc1S(=O)(=O)c1cnc2c(N3CCC(O)CC3)cccc2c1 [Example 35, 1-[3-(2-Methoxy-5-methyl-phenyl)sulfonyl-8-quinolyl]piperidin-4-ol]	0.01 to 0.1 µM	
COc1ccc(C)cc1S(=O)(=O)c1cnc2c(N3CC(O)C3)cccc2c1 [Example 40, 1-[3-(2-Methoxy-5-methyl-phenyl)sulfonyl-8-quinolyl]azetidin-3-ol]	0.01 to 0.1 µM	
COc1ccccc1S(=O)(=O)c1cnc2c(N3CCC(O)CC3)cccc2c1 [Example 21, 1-[3-(2-Methoxyphenyl)sulfonyl-8-quinolyl]piperidin-4-ol]	0.01 to 0.1 µM	60 to 120 µL/min/mg
COc1cccc(S(=O)(=O)c2cnc3c(N4CC(O)C4)cccc3c2)c1 [Example 14, 1-[3-(3-Methoxyphenyl)sulfonyl-8-quinolyl]azetidin-3-ol]	0.01 to 0.1 µM	
COC1CCN(c2cccc(S(=O)(=O)c3cnc4c(N5CCC(C(=O)O)CC5)cccc4c3)c2)C1 (centres unmarked) [Example 54, 1-[3-[3-(3-Methoxypyrrolidin-1-yl)phenyl]sulfonyl-8-quinolyl]piperidine-4-carboxylic Acid]		< 30 µL/min/mg
O=C(O)C1CCN(c2cccc3cc(S(=O)(=O)c4cccc(N5CCNCC5)c4)cnc23)CC1 [Example 55, 1-[3-(3-Piperazin-1-ylphenyl)sulfonyl-8-quinolyl]piperidine-4-carboxylic Acid]		< 30 µL/min/mg
O=S(=O)(c1cnc2c(F)cccc2c1)c1ccccc1N1CC(O)C1 [Example 38, 1-[2-[(8-Fluoro-3-quinolyl)sulfonyl]phenyl]azetidin-3-ol]	0.1 to 0.5 µM	
O=S(=O)(c1cnc2c(F)cccc2c1)c1ccccc1N1CCC(O)CC1 [Example 25, 1-[2-[(8-Fluoro-3-quinolyl)sulfonyl]phenyl]piperidin-4-ol]	0.01 to 0.1 µM	
CN1CCN(c2cccc(S(=O)(=O)c3cnc4c(N5CCC(C(=O)O)CC5)cccc4c3)c2)CC1 [Example 56, 1-[3-[3-(4-Methylpiperazin-1-yl)phenyl]sulfonyl-8-quinolyl]piperidine-4-carboxylic Acid]		< 30 µL/min/mg

Continued, values first:

Ki (h-5-HT6 receptor)	microsomal CLint at 0.5 μM [1]	SMILES
0.1 to 0.5 µM	< 30 µL/min/mg	COc1cccc(S(=O)(=O)c2cnc3c(N4CCC(C(=O)O)CC4)cccc3c2)c1 [Example 15, 1-[3-(3-Methoxyphenyl)sulfonyl-8-quinolyl]piperidine-4-carboxylic Acid]
0.01 to 0.1 µM	30 to 60 µL/min/mg	O=S(=O)(c1ccccc1)c1cnc2c(N3CCC[C@H](O)C3)cccc2c1 [Example 22, (3S)-1-[3-(Benzenesulfonyl)-8-quinolyl]piperidin-3-ol]
	30 to 60 µL/min/mg	O=C(O)C1CCN(c2cccc3cc(S(=O)(=O)c4cccc(N5CCCC5)c4)cnc23)CC1 [Example 53, 1-[3-(3-Pyrrolidin-1-ylphenyl)sulfonyl-8-quinolyl]piperidine-4-carboxylic Acid]
< 0.01 µM	< 30 µL/min/mg	O=S(=O)(c1cccc(OC(F)F)c1)c1cnc2c(N3CCC(O)CC3)cccc2c1 [Example 29, 1-[3-[3-(Difluoromethoxy)phenyl]sulfonyl-8-quinolyl]piperidin-4-ol]
< 0.01 µM	30 to 60 µL/min/mg	O=S(=O)(c1cccc(F)c1)c1cnc2c(N3CC(O)C3)cccc2c1 [Example 10, 1-[3-(3-Fluorophenyl)sulfonyl-8-quinolyl]azetidin-3-ol]
0.01 to 0.1 µM		O=C(O)[C@H]1CCN(c2cccc3cc(S(=O)(=O)c4cccc(C(F)(F)F)c4)cnc23)C1 [Example 11, (3S)-1-[3-[3-(Trifluoromethyl)phenyl]sulfonyl-8-quinolyl]pyrrolidine-3-carboxylic Acid]
	30 to 60 µL/min/mg	O=C(O)C1CCN(c2cccc3cc(S(=O)(=O)c4cccc(OC(F)(F)F)c4)cnc23)CC1 [Example 51, 1-[3-[3-(Trifluoromethoxy)phenyl]sulfonyl-8-quinolyl]piperidine-4-carboxylic Acid]
	< 30 µL/min/mg	N#Cc1cccc(S(=O)(=O)c2cnc3c(N4CCC(C(=O)O)CC4)cccc3c2)c1 [Example 47, 1-[3-(3-Cyanophenyl)sulfonyl-8-quinolyl]piperidine-4-carboxylic Acid]
	< 30 µL/min/mg	O=C(O)CC1CCN(c2cccc3cc(S(=O)(=O)c4cccc(C(F)(F)F)c4)cnc23)CC1 [Example 57, 2-[1-[3-[3-(Trifluoromethyl)phenyl]sulfonyl-8-quinolyl]-4-piperidyl]acetic Acid]
	30 to 60 µL/min/mg	O=C(O)C1CCN(c2cccc3cc(S(=O)(=O)c4cccc(F)c4)cnc23)CC1 [Example 52, 1-[3-(3-Fluorophenyl)sulfonyl-8-quinolyl]piperidine-4-carboxylic Acid]
	< 30 µL/min/mg	O=C(O)c1cccc(S(=O)(=O)c2cnc3c(N4CCC(C(=O)O)CC4)cccc3c2)c1 [Example 49, 1-[3-(3-Carboxyphenyl)sulfonyl-8-quinolyl]piperidine-4-carboxylic Acid]
< 0.01 µM		O=S(=O)(c1cccc(F)c1)c1cnc2c(N3CC[C@H](O)C3)cccc2c1 [Example 26, (3S)-1-[3-(3-Fluorophenyl)sulfonyl-8-quinolyl]pyrrolidin-3-ol]
	< 30 µL/min/mg	Cc1cccc(S(=O)(=O)c2cnc3c(N4CCC(C(=O)O)CC4)cccc3c2)c1 [Example 50, 1-[3-(m-Tolylsulfonyl)-8-quinolyl]piperidine-4-carboxylic Acid]
	30 to 60 µL/min/mg	O=C(O)CC1CCCN(c2cccc3cc(S(=O)(=O)c4cccc(C(F)(F)F)c4)cnc23)C1 (centres unmarked) [Example 58, 2-[1-[3-[3-(Trifluoromethyl)phenyl]sulfonyl-8-quinolyl]-3-piperidyl]acetic Acid]
< 0.01 µM		NC(=O)C1CCCN(c2cccc3cc(S(=O)(=O)c4cccc(C(F)(F)F)c4)cnc23)C1 (centres unmarked) [Example 46, 1-[3-(3-Trifluoromethyl-benzenesulfonyl)-quinolin-8-yl]-piperidine-3-carboxylic Acid Amide]
